Measured values reported in US7659270B2, “Hepatitis C virus inhibitors” (Bristol-Myers Squibb Company, priority 2006, dated 2010).

Test system: HCV 1b-377-neo replicon cells
Assay: HCV replicon assay (HCV 1b-377-neo replicon cells)
Assay type: cell-based, Hepatitis C virus genotype 1b
Settings: Hepatitis C virus, read-out: EC50 range against HCV 1b (Range)
Method in brief: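 HCV genotype 1b (1b-377-neo) replicon cells, run as a validated replicon assay; parallel testing in replicon cells carrying the NS5A Y2065H resistance mutation.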

Structure (SMILES): COC(=O)N[C@@H](C(=O)N1CCC[C@H]1c1ncc(-c2ccc(-c3cnc(-c4cnc([C@@H]5CCCN5C(=O)[C@H](NC(=O)OC)c5ccccc5)[nH]4)cn3)cc2)[nH]1)c1ccccc1 [Example 152j-8, methyl ((1R)-2-((2S)-2-(5-(5-(4-(2-((2S)-1-((2R)-2-((methoxycarbonyl)a-mino)-2-phenylacetyl)-2-pyrrolidinyl)-1H-imidazol-5-yl)phenyl)-2-pyrazinyl)-1H-imidazol-2-yl)-1-pyrrolidinyl)-2-oxo-1-phenylethyl)carbamate]
- EC50: 0.01 to 0.999 nM

Structure (SMILES): COC(=O)N[C@H](C(=O)N1[C@H](c2ncc(-c3ccc(-c4ccc(-c5cnc([C@@H]6C[C@@H]7C[C@@H]7N6C(=O)[C@@H](NC(=O)OC)C(C)C)[nH]5)cc4)cc3)[nH]2)C[C@@H]2C[C@@H]21)C(C)C [Example M122, methyl((1S)-1-(((1S,3S,5S)-3-(5-(4′-(2-((1S,3S,5S)-2-((2S)-2-((methoxycarbonyl)amino)-3-methylbutanoyl)-2-azabicyclo[3.1.0]hex-3-yl)-1H-imidazol-5-yl)-4-biphenylyl)-1H-imidazol-2-yl)-2-azabicyclo[3.1.0]hex-2-yl)carbonyl)-2-methylpropyl)carbamate]
- EC50: 1 to 99 nM

Structure (SMILES): COC(=O)N[C@@H](C(=O)N1CCC[C@H]1c1ncc(-c2cnc(-c3ncc(-c4cnc([C@@H]5CCCN5C(=O)[C@H](NC(=O)OC)c5ccccc5)[nH]4)cn3)nc2)[nH]1)c1ccccc1 [Example 153c-4, dimethyl (2,2′-bipyrimi-dine-5,5′-diylbis(1H-imi-dazole-5,2-diyl (2S)-2,1-pyrrolidine-diyl((1R)-2-oxo-1-phe-nyl-2,1-ethane-diyl)))biscarba-mate]
- EC50: 1000 to 10000 nM

Structure (SMILES): COC(=O)N[C@@H](C)C(=O)N1CCC[C@H]1c1nc(-c2cnc(-c3ccc(-c4cnc([C@@H]5CCCN5C(=O)[C@H](C)NC(=O)OC)[nH]4)cc3)nc2)c[nH]1 [Example D73, methyl ((1S)-2-((2S)-2-(5-(4-(5-(2-((2S)-1-(N-(methoxy-carbonyl)-L-alanyl)-2-pyrroli-dinyl)-1H-imida-zol-5-yl)-2-pyrimi-dinyl)phenyl)-1H-imidazol-2-yl)-1-pyrroli-dinyl)-1-methyl-2-oxoeth-yl)carbamate]
- EC50: 0.01 to 0.999 nM

Structure (SMILES): CN(C)[C@@H](C(=O)N1CCC[C@H]1c1ncc(-c2cnc(-c3cnc(-c4cnc([C@@H]5CCCN5C(=O)[C@@H](c5ccccc5)N(C)C)[nH]4)cn3)cn2)[nH]1)c1ccccc1 [Example 153c-5, (1R,1′R)-2,2′-(2,2′-bipyrazine-5,5′-diylbis(1H-imidazole-5,2-diyl (2S)-2,1-pyrrolidine-diyl))bis(N, N-dimeth-yl-2-oxo-1-phenyl-ethanamine)]
- EC50: 1 to 99 nM

Structure (SMILES): COC(=O)N[C@@H](C(=O)N(C)[C@@H](C)c1ncc(-c2ccc(-c3ccc(-c4cnc([C@H](C)N(C)C(=O)[C@H](NC(=O)OC)c5ccccc5)[nH]4)cc3)cc2)[nH]1)c1ccccc1 [Example 24-18-1, dimethyl (4,4′-biphenyl-diylbis(1H-imidazole-5,2-diyl(1S)-1,1-ethane-diyl(methyli-mino)(1R)-2-oxo-1-phenyl-2,1-ethane-diyl)))biscar-bamate]
- EC50: 0.01 to 0.999 nM

Structure (SMILES): COC(=O)N[C@@H](C(=O)N[C@@H](C)c1ncc(-c2ccc(-c3ccc(-c4cnc([C@@H]5CCCN5C(=O)[C@H](NC(=O)OC)c5ccccc5)[nH]4)nn3)cc2)[nH]1)c1ccccc1 [Example 152j-14, methyl ((1R)-2-((2S)-2-(5-(6-(4-(2-((1S)-1-(((2R)-2-((methoxycarbonyl)a-mino)-2-phenyl-acetyl)amino)eth-yl)-1H-imidazol-5-yl)phenyl)-3-pyridazinyl)-1H-imidazol-2-yl)-1-pyrrolidinyl)-2-oxo-1-phenylethyl)carbamate]
- EC50: 1 to 99 nM

Structure (SMILES): COC(=O)N[C@@H](C(=O)N(C)[C@@H](C)c1ncc(-c2ccc(-c3ncc(-c4cnc([C@@H]5CCCN5C(=O)[C@@H](c5ccccc5)N5CCCCC5)[nH]4)cn3)cc2)[nH]1)c1ccccc1 [Example 152l-1, methyl ((1R)-2-(meth-yl((1S)-1-(4-(4-(5-(2-((2S)-1-((2R)-2-phenyl-2-(1-piperi-dinyl)acetyl)-2-pyrrolidinyl)-1H-imidazol-5-yl)-2-pyrimi-dinyl)phenyl)-1H-imidazol-2-yl)eth-yl)amino)-2-oxo-1-phenyl-ethyl)carbamate]
- EC50: 0.01 to 0.999 nM

Structure (SMILES): COC(=O)N[C@H](C(=O)N1CCC[C@H]1c1nc(-c2cnc(-c3ccc(-c4cnc([C@@H]5CCCN5C(=O)[C@@H](NC(=O)OC)C5CC5)[nH]4)cc3)nc2)c[nH]1)C1CC1 [Example D75, methyl ((1S)-1-cyclopropyl-2-((2S)-2-(5-(2-(4-(2-((2S)-1-((2S)-2-cyclopropyl-2-((methoxy-carbonyl)amino)ace-tyl)-2-pyrroli-dinyl)-1H-imidazol-5-yl)phenyl)-5-pyrimi-dinyl)-1H-imida-zol-2-yl)-1-pyrroli-dinyl)-2-oxoeth-yl)carbamate]
- EC50: 0.01 to 0.999 nM

Structure (SMILES): C[C@@H](c1ncc(-c2ccc(-c3ncc(-c4cnc([C@@H]5CCCN5C(=O)[C@@H](c5ccccc5)N(C)C)[nH]4)cn3)cc2)[nH]1)N(C)C(=O)[C@@H](c1ccccc1)N(C)C [Example 152j-20, (2R)-2-(dimethylamino)-N-((1S)-1-(5-(4-(5-(2-((2S)-1-((2R)-2-(dimethylamino)-2-phenylacetyl)-2-pyrrolidinyl)-1H-imidazol-5-yl)-2-pyrimidinyl)phenyl)-1H-imidazol-2-yl)ethyl)-N-methyl-2-phenylacetamide]
- EC50: 1 to 99 nM

Structure (SMILES): C[C@@H](c1ncc(-c2ccc(-c3ccc(-c4cnc([C@H](C)N(C)C(=O)[C@@H](c5ccccc5)N(C)C)[nH]4)cc3)cc2)[nH]1)N(C)C(=O)[C@@H](c1ccccc1)N(C)C [Example 24-18-2, (2R,2′R)-N,N′-(4,4′-biphenyl-diylbis(1H-imidazole-5,2-diyl(1S)-1,1-ethane-diyl))bis(2-(dimethyl-amino)-N-methyl-2-phenyl-acetamide)]
- EC50: 0.01 to 0.999 nM

Structure (SMILES): COC(=O)N[C@@H](C(=O)N1CCC[C@H]1c1ncc(-c2ccc(-c3ccc(-c4cnc([C@@H]5CCCN5C(=O)[C@H]5CCCO5)[nH]4)cn3)cc2)[nH]1)c1ccccc1 [Example 141, methyl ((1R)-2-oxo-1-phenyl-2-((2S)-2-(5-(4-(5-(2-((2S)-1-((2R)-tetrahydro-2-furanylcarbonyl)-2-pyrrolidinyl)-1H-imidazol-5-yl)-2-pyridinyl)phenyl)-1H-imidazol-2-yl)-1-pyrrolidinyl)ethyl)carbamate]
- EC50: 0.01 to 0.999 nM

Structure (SMILES): COC(=O)N[C@@H](C(=O)N1CCC[C@H]1c1ncc(-c2ccc(-c3ncc(-c4cnc([C@@H]5CCCN5C(=O)[C@H](NC(=O)OC)c5ccccc5)[nH]4)cn3)cc2)[nH]1)c1ccccc1 [Example 152j-2, methyl ((1R)-2-((2S)-2-(5-(2-(4-(2-((2S)-1-((2R)-2-((methoxycarbonyl)a-mino)-2-phenylacetyl)-2-pyrrolidinyl)-1H-imidazol-5-yl)phenyl)-5-pyrimidinyl)-1H-imidazol-2-yl)-1-pyrrolidinyl)-2-oxo-1-phenylethyl)carba-mate]
- EC50: 0.01 to 0.999 nM

Structure (SMILES): COC(=O)N[C@@H](C(=O)N[C@@H](C)c1ncc(-c2cnc(-c3ccc(-c4cnc([C@@H]5CCCN5C(=O)[C@H](NC(=O)OC)c5ccccc5)[nH]4)cc3)nc2)[nH]1)c1ccccc1 [Example 152j-17, methyl ((1R)-2-((2S)-2-(5-(4-(5-(2-((1S)-1-(((2R)-2-((methoxycarbonyl)a-mino)-2-phenyl-acetyl)amino)eth-yl)-1H-imidazol-5-yl)-2-pyrimidinyl)phenyl)-1H-imidazol-2-yl)-1-pyrrolidinyl)-2-oxo-1-phenylethyl)carba-mate]
- EC50: 0.01 to 0.999 nM

Structure (SMILES): COC(=O)N[C@H](C(=O)N1CCC[C@H]1c1ncc(-c2cnc(-c3ccc(-c4[nH]c([C@@H]5CCCN5C(=O)[C@@H](NC(=O)OC)C5CC5)nc4C(F)(F)F)cc3)nc2)[nH]1)C1CC1 [Example J49, methyl ((1S)-1-cyclopropyl-2-((2S)-2-(5-(4-(5-(2-((2S)-1-((2S)-2-cyclopropyl-2-((methoxy-carbonyl)amino)acetyl)-2-pyrrolidinyl)-1H-imidazol-5-yl)-2-pyrimi-dinyl)phenyl)-4-(trifluoromethyl)-1H-imida-zol-2-yl)-1-pyrrolidinyl)-2-oxoeth-yl)carbamate]
- EC50: 0.01 to 0.999 nM

Structure (SMILES): CCN(CC)[C@@H](C(=O)N1CCC[C@H]1c1ncc(-c2ccc(-c3ncc(-c4c[nH]c([C@@H]5CCCN5C(=O)[C@H](C)NC(=O)OC)n4)cn3)cc2)[nH]1)c1ccccc1 [Example D77, methyl ((1S)-2-((2S)-2-(5-(2-(4-(2-((2S)-1-((2R)-2-(diethyl-amino)-2-phenyl-acetyl)-2-pyrroli-dinyl)-1H-imidazol-5-yl)phenyl)-5-pyrimi-dinyl)-1H-imida-zol-2-yl)-1-pyrrolidinyl)-1-methyl-2-oxoeth-yl)carbamate]
- EC50: 0.01 to 0.999 nM

Structure (SMILES): COC(=O)N[C@@H](C(=O)N1CCC[C@H]1c1nc(-c2cnc(-c3ccc(-c4cnc([C@@H]5CCCN5C(=O)[C@H](NC(=O)OC)c5ccccc5)[nH]4)c(F)c3)nc2)c[nH]1)c1ccccc1 [Example D69, methyl ((1R)-2-((2S)-2-(5-(2-(3-fluoro-4-(2-((2S)-1-((2R)-2-((methoxy-carbonyl)a-mino)-2-phenyl-acetyl)-2-pyrroli-dinyl)-1H-imidazol-5-yl)phenyl)-5-pyrimi-dinyl)-1H-imida-zol-2-yl)-1-pyrrolidinyl)-2-oxo-1-phenyl-eth-yl)carbamate]
- EC50: 0.01 to 0.999 nM

Structure (SMILES): COC(=O)N[C@@H](C)C(=O)N(C)[C@@H](C)c1ncc(-c2ccc(-c3ccc(-c4[nH]c([C@@H]5CCCN5C(=O)[C@H](C)NC(=O)OC)nc4C(F)(F)F)cc3)cc2)[nH]1 [Example J42.a, methyl ((1S)-2-((2S)-2-(5-(4′-(2-((1S)-1-((N-(methoxy-carbonyl)-L-alanyl)(meth-yl)ami-no)ethyl)-1H-imidazol-5-yl)-4-biphenylyl)-4-(trifluoromethyl)-1H-imida-zol-2-yl)-1-pyrrolidinyl)-1-methyl-2-oxoeth-yl)carbamate]
- EC50: 0.01 to 0.999 nM
